Source: ChEMBL document CHEMBL4184149, “Discovery and process development of a novel TACE inhibitor for the topical treatment of psoriasis” (Bioorg Med Chem, 2018)
Values after ≈ are worked out from the molar mass of the structure shown. Active and inactive are the calls of the source. No cut-off for these calls is given here.

Experiments:
[1] = biological target: Disintegrin and metalloproteinase domain-containing protein 17 (Homo sapiens, UniProt P78536); experiment: Inhibition of TACE in human PBMC assessed as reduction in LPS-induced TNFalpha production incubated overnight by HTRF assay; assay type: cell-based
[2] = Solubility of the compound in propylene glycol/ethanol96 at 30 mg/ml after 24 hrs by UV-spectrometric analysis; assay type: physicochemical; conditions: for solubility at 24 h: propylene glycol/ethanol96; for solubility: 24 h
TK6 [3] = experiment: Genotoxicity in p53-competent human TK6 cells in presence of Sprague-Dawley rat S9 fraction by GADD45alpha GFP reporter assay; assay type: toxicity, cell-based
TK6 [4] = experiment: Genotoxicity in p53-competent human TK6 cells in absence of Sprague-Dawley rat S9 fraction by GADD45alpha GFP reporter assay; assay type: toxicity, cell-based
[5] = Stability of the compound in propylene glycol/ethanol96 assessed as parent compound remaining at 0.1 mg/ml after 1 month at 40 degC by HPLC analysis; assay type: physicochemical; conditions: read-out: Stability
[6] = Aqueous solubility of the compound in PBS at pH 7.4 at 20 degC after 24 hrs by HPLC analysis; assay type: physicochemical
[7] = Stability of the compound in propylene glycol/ethanol96 at 0.1 mg/ml measured up to 3 months by HPLC analysis; assay type: physicochemical; conditions: read-out: Stability
[8] = (§1) Intrinsic clearance in human hepatocytes assessed per million cells at 1 uM by LC-MS/MS analysis; assay type: ADME, cell-based, Hepatocyte; conditions: human hepatocytes, read-out: CLH
[9] = Half life in human neonatal keratinocytes at 1 uM by LC-MS/MS analysis; assay type: ADME, cell-based
Mus musculus = experiment: Antiinflammatory activity in topically applied oxazolone-induced chronic skin inflammation hairless SKH1 mouse model assessed as decrease in skin lesions applied topically for 10 days in combination with oxazolone; assay type: functional, organism-based
[10] = Photoirritancy factor, ratio of EC50 for human neonatal keratinocytes under dark condition to EC50 for human neonatal keratinocytes under 5 J/cm2 UV light exposure; assay type: toxicity; conditions: read-out: Ratio EC50
Hepatocyte = experiment: as §1; assay type: ADME, cell-based; conditions: hepatocytes, 1 µM

Chain of Disintegrin and metalloproteinase domain-containing protein 17 (P78536 whole entry, the tested form may be a part): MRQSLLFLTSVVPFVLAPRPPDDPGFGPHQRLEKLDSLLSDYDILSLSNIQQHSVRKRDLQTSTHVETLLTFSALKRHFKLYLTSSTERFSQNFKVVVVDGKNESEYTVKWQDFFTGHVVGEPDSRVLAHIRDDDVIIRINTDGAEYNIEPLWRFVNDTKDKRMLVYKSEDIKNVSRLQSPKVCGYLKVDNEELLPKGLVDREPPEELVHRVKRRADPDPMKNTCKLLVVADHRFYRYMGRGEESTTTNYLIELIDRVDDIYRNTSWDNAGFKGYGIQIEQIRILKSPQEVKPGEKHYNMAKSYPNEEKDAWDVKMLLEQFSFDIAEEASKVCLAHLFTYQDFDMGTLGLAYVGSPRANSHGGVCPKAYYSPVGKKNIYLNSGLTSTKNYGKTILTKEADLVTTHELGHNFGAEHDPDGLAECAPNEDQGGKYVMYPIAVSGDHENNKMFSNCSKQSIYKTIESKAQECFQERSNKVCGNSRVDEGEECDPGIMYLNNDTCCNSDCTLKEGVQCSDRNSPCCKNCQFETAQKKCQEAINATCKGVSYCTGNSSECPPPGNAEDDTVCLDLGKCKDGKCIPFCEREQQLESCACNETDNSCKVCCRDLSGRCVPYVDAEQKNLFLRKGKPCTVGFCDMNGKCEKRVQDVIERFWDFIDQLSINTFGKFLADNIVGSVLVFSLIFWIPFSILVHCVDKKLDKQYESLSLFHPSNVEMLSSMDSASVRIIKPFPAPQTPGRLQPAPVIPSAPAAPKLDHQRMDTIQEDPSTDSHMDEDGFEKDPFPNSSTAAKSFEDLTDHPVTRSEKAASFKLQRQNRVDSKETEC

IC50 [1] [µM] | solubility at 24 h [2] [µM] | Structure (SMILES) | other results
0.061 |  | CC(=O)N1CC(CC(=O)NO)(NS(=O)(=O)c2ccc(OCc3cc(C)nc4c(F)cccc34)cc2)C1 | 
0.004 | 3000 (≈ 1620 µg/mL) | CC(=O)N1CC2(C1)CC(CC(=O)NO)(NS(=O)(=O)c1ccc(OCc3cc(C)nc4ccccc34)cc1)C2 | 
0.24 | 1900 (≈ 917 µg/mL) | CC(=O)N1CC(CC(=O)NO)(NS(=O)(=O)c2ccc(Cc3cc(C)nc4ccccc34)cc2)C1 | 
> 10 | 400 (≈ 205 µg/mL) | CC(=O)N1CC(CC(=O)NO)(NS(=O)(=O)c2ccc(OCc3cc(C)nc4ccccc34)c(C)c2)C1 | 
0.027 | 400 (≈ 205 µg/mL) | CCc1cc(COc2ccc(S(=O)(=O)NC3(CC(=O)NO)CN(C(C)=O)C3)cc2)c2ccccc2n1 | 
0.006 | 1100 (≈ 597 µg/mL) | Cc1cc(COc2ccc(S(=O)(=O)NC3(CC(=O)NO)CN(C(=O)OC(C)C)C3)cc2)c2ccccc2n1 | solubility at 24 h [6]: 80 µM (≈ 43.4 µg/mL)
0.006 | 900 (≈ 487 µg/mL) | Cc1cc(COc2ccc(S(=O)(=O)NC3(CC(=O)NO)CN(C(=O)CC(C)C)C3)cc2)c2ccccc2n1 | hepatocyte CLint at 1 µM [8]: 13 µL/min/1e6 cells
0.59 |  | CC(=O)N1CC(CC(=O)NO)(N(C)S(=O)(=O)c2ccc(OCc3cc(C)nc4ccccc34)cc2)C1 | 
> 10 | 900 (≈ 461 µg/mL) | CC(=O)N1CC(CC(=O)NO)(NS(=O)(=O)c2ccc(OCc3cc(C)nc4ccccc34)cc2C)C1 | 
0.008 | 800 (≈ 399 µg/mL) | CC(=O)N1CC(CC(=O)NO)(NS(=O)(=O)c2ccc(OCc3cc(C)nc4ccccc34)cc2)C1 | solubility at 24 h [6]: < 0.5 µM; remaining at 0.1 mg/ml [7]: 98%; hepatocyte CLint at 1 µM [8]: < 5 µL/min/1e6 cells; half-life at 1 µM [9]: > 24 h; selectivity ratio [10]: 1; Activity (TK6 [3]): Non-Toxic; Activity (TK6 [4]): Non-Toxic
0.042 |  | Cc1cc(COc2ccc(S(=O)(=O)NC3(CC(=O)NO)CCN(C(=O)CC(C)C)C3)cc2)c2ccccc2n1 (stereo in doubt; 18h) | solubility [2]: 7900 µM (≈ 4380 µg/mL)
0.72 | 1000 (≈ 515 µg/mL) | CC(=O)N1CC(CC(=O)NO)(NS(=O)(=O)c2ccc(SCc3cc(C)nc4ccccc34)cc2)C1 | 
0.008 |  | Cc1cc(COc2ccc(S(=O)(=O)NC3(CC(=O)NO)CCN(C(=O)CC(C)C)C3)cc2)c2ccccc2n1 (stereo in doubt; 18g) | solubility [2]: 17000 µM (≈ 9430 µg/mL); Activity (TK6 [3]): Toxic; Activity (TK6 [4]): Toxic
0.0046 | 11000 (≈ 6270 µg/mL) | Cc1cc(COc2ccc(S(=O)(=O)NC3(CC(=O)NO)CN(C(=O)C(C)(C)N(C)C)C3)cc2)c2ccccc2n1 | Stability (Hepatocyte): Unstable; Activity (TK6 [3]): Non-Toxic; Activity (TK6 [4]): Non-Toxic

Second part, the compound before the results:

Structure (SMILES) | IC50 [1] [µM] | solubility at 24 h [2] [µM] | other results
Cc1cc(COc2ccc(S(=O)(=O)NC3(CC(=O)NO)CC3)cc2)c2ccccc2n1 | 0.084 | 1600 (≈ 706 µg/mL) | 
Cc1cc(COc2ccc(S(=O)(=O)NC3(C(=O)NO)CCCCC3)cc2)c2ccccc2n1 | 0.1 | 11000 (≈ 5170 µg/mL) | Activity (TK6 [3]): Non-Toxic; Activity (TK6 [4]): Non-Toxic
Cc1cc(COc2ccc(S(=O)(=O)NC3(C(=O)NO)CN(CCC(F)(F)F)C3)cc2)c2ccccc2n1 |  |  | remaining at 730.5 h, 0.1 mg/ml [5]: 58%
Cc1cc(COc2ccc(S(=O)(=O)NC3(CC(=O)NO)CCC3)cc2)c2ccccc2n1 | 0.013 |  | 
CC(=O)N1CC2(C1)CC(NS(=O)(=O)c1ccc(OCc3cc(C)nc4ccccc34)cc1)(C(=O)NO)C2 | 0.036 | 17000 (≈ 8920 µg/mL) | solubility at 24 h [6]: 84 µM (≈ 44.1 µg/mL); remaining at 0.1 mg/ml [7]: 95%; hepatocyte CLint at 1 µM [8]: < 5 µL/min/1e6 cells; half-life at 1 µM [9]: > 24 h; Activity (TK6 [3]): Toxic; Activity (TK6 [4]): Toxic
Cc1cc(COc2ccc(S(=O)(=O)N(C(C)C)C3(C(=O)NO)CN(C(=O)C(C)C)C3)cc2)c2ccccc2n1 | 0.79 | 2200 (≈ 1220 µg/mL) | hepatocyte CLint at 1 µM [8]: 17 µL/min/1e6 cells
Cc1cc(COc2ccc(S(=O)(=O)NC3(CC(=O)NO)CN(C(=O)N4CCCCC4)C3)cc2)c2ccccc2n1 | 0.005 | 500 (≈ 284 µg/mL) | solubility at 24 h [6]: 80 µM (≈ 45.4 µg/mL)
Cc1cc(COc2ccc(S(=O)(=O)NC3(C(=O)NO)CN(C(=O)C(C)C)C3)cc2)c2ccccc2n1 | 0.016 | 17000 (≈ 8710 µg/mL) | hepatocyte CLint at 1 µM [8]: < 5 µL/min/1e6 cells; Activity (TK6 [3]): Non-Toxic; Activity (TK6 [4]): Non-Toxic
Cc1cc(COc2ccc(S(=O)(=O)N(C)C3(C(=O)NO)CN(CCC(F)(F)F)C3)cc2)c2ccccc2n1 |  |  | remaining at 730.5 h, 0.1 mg/ml [5]: 98%
CC#CCOc1ccc(S(=O)(=O)NC2(CC(=O)NO)CN(C(C)=O)C2)cc1 | 1.3 | 1800 (≈ 712 µg/mL) | 
Cc1cc(COc2ccc(S(=O)(=O)NC3(CC(=O)NO)COC3)cc2)c2ccccc2n1 | 0.01 | 200 (≈ 91.5 µg/mL) | 
Cc1cc(COc2ccc(S(=O)(=O)NC3(C(=O)NO)CN(C(=O)CC(C)C)C3)cc2)c2ccccc2n1 | 0.033 | 5000 (≈ 2630 µg/mL) | hepatocyte CLint at 1 µM [8]: 6 µL/min/1e6 cells
CCCCC(=O)O[C@]1(C(=O)CO)[C@@H](C)C[C@H]2[C@@H]3CCC4=CC(=O)C=C[C@]4(C)[C@@]3(F)[C@@H](O)C[C@@]21C |  |  | Activity (Mus musculus): Active
Cc1cc(COc2ccc(S(=O)(=O)NC3(C(=O)NO)CC3)cc2)c2ccccc2n1 | 0.21 | 46000 (≈ 19700 µg/mL) | Activity (TK6 [3]): Toxic; Activity (TK6 [4]): Toxic
Cc1cc(COc2ccc(S(=O)(=O)NC(C)(C)CC(=O)NO)cc2)c2ccccc2n1 | 0.043 | 1600 (≈ 710 µg/mL) | 
Cc1cc(COc2ccc(S(=O)(=O)NC3(CC(=O)NO)CN(CCC(F)(F)F)C3)cc2)c2ccccc2n1 | 0.01 | 3400 (≈ 1880 µg/mL) | remaining at 730.5 h, 0.1 mg/ml [5]: 88%
Cc1cc(COc2ccc(S(=O)(=O)NC[C@@H](C(=O)NO)N3CCCCC3)cc2)c2ccccc2n1 |  | 8000 (≈ 3990 µg/mL) | solubility at 24 h [6]: < 1 µM; remaining at 0.1 mg/ml [7]: 89%; hepatocyte CLint at 1 µM [8]: 24 µL/min/1e6 cells; half-life at 1 µM [9]: > 24 h; Activity (TK6 [3]): Non-Toxic; Activity (TK6 [4]): Non-Toxic
COCCN(C1(C(=O)NO)CN(C(=O)C(C)C)C1)S(=O)(=O)c1ccc(OCc2cc(C)nc3ccccc23)cc1 | 0.031 | 8900 (≈ 5080 µg/mL) | hepatocyte CLint at 1 µM [8]: 18 µL/min/1e6 cells
CCN(C1(C(=O)NO)CN(C(=O)C(C)C)C1)S(=O)(=O)c1ccc(OCc2cc(C)nc3ccccc23)cc1 | 0.037 | 44000 (≈ 23800 µg/mL) | hepatocyte CLint at 1 µM [8]: 11 µL/min/1e6 cells
CC(=O)N1CCC(NS(=O)(=O)c2ccc(OCc3cc(C)nc4ccccc34)cc2)(C(=O)NO)CC1 | 0.061 | 59000 (≈ 30200 µg/mL) | Activity (TK6 [3]): Toxic; Activity (TK6 [4]): Toxic
CCCCN1CC(CC(=O)NO)(NS(=O)(=O)c2ccc(OCc3cc(C)nc4ccccc34)cc2)C1 | 0.012 | 4900 (≈ 2510 µg/mL) | solubility at 24 h [6]: 70 µM (≈ 35.9 µg/mL); remaining at 730.5 h, 0.1 mg/ml [5]: 72%
Cc1cc(COc2ccc(S(=O)(=O)NC(C)(C)C(=O)NO)cc2)c2ccccc2n1 | 0.14 |  | 
Cc1cc(COc2ccc(S(=O)(=O)NC3(C(=O)NO)CCC3)cc2)c2ccccc2n1 | 0.03 |  | Activity (TK6 [3]): Toxic; Activity (TK6 [4]): Toxic
Cc1cc(COc2ccc(S(=O)(=O)NCC(=O)NO)cc2)c2ccccc2n1 | 0.082 | 100 (≈ 40.1 µg/mL) | 
Cc1cc(COc2ccc(S(=O)(=O)NCCC(=O)NO)cc2)c2ccccc2n1 | 2.3 | 4100 (≈ 1700 µg/mL) | 
Cc1cc(COc2ccc(S(=O)(=O)NC3(C(=O)NO)CCCC3)cc2)c2ccccc2n1 | 0.068 | 200 (≈ 91.1 µg/mL) | 
